Experimental data reported in patent US20070197524A1, “Fluorenes and carbazoles as ligands of the EP2 receptor” (priority 2005, published 2007).

Legend:
[1] = target: T1, human prostaglandin E2 (subtype EP2) receptor (Homo sapiens, UniProt P43116); test: cAMP agonism assay (HTRF cAMP detection); assay type: cell-based; conditions: cAMP agonism test; read-out: Agonism [ED50, μm]
T1 construct: host or cells: cells in a cell culture plate
Procedure: (§1) The binding of PGE2 to the EP2 subtype of the human PGE2 receptor induces activation of membrane-associated adenylate cyclases and leads to the formation of cAMP. In the presence of the phosphodiesterase inhibitor IBMX, cAMP which has accumulated due to this stimulation and been released by cell lysis is employed in a competitive detection method. In this assay, the cAMP in the lysate competes with cAMP-XL665 for binding of an Eu cryptate-labelled anti-cAMP antibody.
(§2) The two signals are measured in a suitable measuring instrument with a time lag, i.e. after the background fluorescence has declined.
1.2.2 Agonism Assay (Data for Each Well of a 384-Well Plate):
(§3) The substance solutions (0.75 μl) introduced into an assay plate and 30% DMSO are dissolved in 16 μl of a KRSB+IBMX stimulation solution (1×Krebs-Ringer Bicarbonate Buffer; Sigma-Aldrich # K-4002; including 750 μM 3-isobutyl-1-methylxanthine Sigma-Aldrich # I-7018), and then 15 μl thereof are transferred into a media-free cell culture plate which has been washed with KRSB shortly beforehand.
(§4) After incubation at room temperature (RT; volume: ˜15 μl) for 60 minutes, the reaction is then stopped by adding 5 μl of lysis buffer and incubated at RT for a further 20 min (volume: ˜20 μl). The cell lysate is then transferred into a measuring plate and measured in accordance with the manufacturer's information (cyclic AMP kit Cisbio International # 62AMPPEC).

cumulus-oocyte complexes = test: Cumulus expansion assay in vitro; assay type: cell-based, mice; conditions: concentration of 100-200 μm; test substances compete with PGE2
Procedure: 2.2 Cumulus Expansion Assay in Vitro
Folliculogenesis is induced in immature female mice (strain: CD1 (ICR) from Charles River) at an age of 14-18 days by a single dose (intraperitoneal) of 10 I.U. of PMSG (Pregnant Mare Serum Gonadotropin; Sigma G-4877, Lot 68H0909). 47-50 hours after the injection, the ovaries are removed and the cumulus-oocyte complexes are removed. The cumulus complex is not yet expanded at this stage.
The cumulus-oocyte complexes are then incubated with prostaglandin E2 (PGE2) (1 μM), vehicle control (ethanol) or test substances for 20-24 hours. Medium: alpha-MEM medium with 0.1 mM IBMX, pyruvates (0.23 mM) glutamines (2 mM), pen/strep 100 IU/ml pen. and 100 μg/ml strep. and HSA (8 mg/ml). Cumulus expansion is then established through the division into four stages (according to Vanderhyden et al. Dev Biol. 1990 August; 140 (2):307-317).

[2] = target: T1, human prostaglandin E2 (subtype EP2) receptor; test: cAMP antagonism assay (HTRF cAMP detection, in presence of PGE2); assay type: cell-based; conditions: cAMP antagonism test
Description: 1. Detection of the Antagonism of the Human Prostaglandin E2 (Subtype EP2) Receptor Signal
1.1 Principle of Detection
as §1, §2
1.2.1 Antagonism Assay (Data for Each Well of a 384-Well Plate):
as §3
as §4, with “preincubation” for “incubation”, “(RT) for 30 minutes, 5 μl of a 4×PGE2 solution (11 nM) are added, and incubation is carried out in the presence of the agonist at RT for a further 60 min (volume: ˜20” for “(RT; volume: ˜15”, “before” for “for 60 minutes,”, “˜25” for “˜20”

T1 sequence (P43116 whole entry): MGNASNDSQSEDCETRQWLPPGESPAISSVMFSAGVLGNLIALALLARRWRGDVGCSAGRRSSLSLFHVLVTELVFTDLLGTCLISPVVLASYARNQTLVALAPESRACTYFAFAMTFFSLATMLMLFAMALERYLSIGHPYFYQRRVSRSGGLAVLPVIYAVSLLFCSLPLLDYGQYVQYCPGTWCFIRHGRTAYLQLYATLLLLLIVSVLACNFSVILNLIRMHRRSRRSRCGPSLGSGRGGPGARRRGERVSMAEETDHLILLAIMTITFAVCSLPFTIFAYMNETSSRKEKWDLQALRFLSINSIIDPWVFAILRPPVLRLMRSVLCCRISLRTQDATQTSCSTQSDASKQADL

Compound	EC50 [1]	suppression of cumulus expansion (cumulus-oocyte complexes)	IC50 [2]
O=C(O)CC1c2ccccc2-c2ccc(OCCCCOc3cccc(O)c3)cc21 (racemic) [VI/3, (R/S) {2-[4-(3-Hydroxyphenoxy)butoxy]-9H-fluoren-9-yl}acetic acid]	> 19 µM	~50%	6.4 µM
CC(=O)Nc1cccc(OCCCCOc2ccc3c(c2)C(CC(=O)O)c2ccccc2-3)c1 (racemic) [VI/4, (R/S) {2-[4-(3-Acetylaminophenoxy)butoxy]-9H-fluoren-9-yl}acetic acid]	6.3 µM		> 19 µM
CC(C)Oc1ccc2c(=O)c3cc(C(=O)O)ccc3oc2c1 [AH6809, reference compound]	> 19 µM	about 20%	> 19 µM
CCOC(=O)Cn1c2ccccc2c2ccc(OCCCCOc3cccc(C(=O)OC)c3)cc21 [XII/5, Methyl 3-[4-(9-ethoxycarbonylmethyl-9H-carbazol-2-yloxy)butoxy]benzoate]	6.3 µM		> 19 µM
CC(=O)c1cccc(OCCCCOc2ccc3c4ccccc4n(CC(=O)O)c3c2)c1 [XIII/12, {2-[4-(3-acetylphenoxy)butoxy]carbazol-9-yl}acetic acid]	> 19 µM		6.3 µM
O=C(O)Cn1c2ccccc2c2ccc(OCCCCOc3ccc(-n4cccc4)cc3)cc21 [XIII/22, {2-[4-(4-pyrrol-1-ylphenoxy)butoxy]carbazol-9-yl}acetic acid]	> 19 µM		1.2 µM
O=C(O)CCn1c2ccccc2c2ccc(OCCCCOc3ccc4c(c3)CCC(=O)N4)cc21 [XIII/67, 3-{2-[4-(2-oxo-1,2,3,4-tetrahydroquinolin-6-yloxy)butoxy]carbazol-9-yl}propionic acid]	> 19 µM		3.2 µM
O=C(O)Cn1c2ccccc2c2ccc(OCCCOc3ccccc3)cc21 [XIII/85, [2-(3-phenoxypropoxy)carbazol-9-yl]acetic acid]	> 19 µM		6.7 µM
O=C(O)Cn1c2ccccc2c2ccc(OCCCCCOc3ccccc3)cc21 [XIII/140, [2-(5-phenoxypentyloxy)carbazol-9-yl]acetic acid]	> 19 µM		6.7 µM
